System: unilateral vestibular neurectomized cats (UVN)
Assay: Support surface measurement: recovery of static posture after unilateral vestibular neurectomy
Type: in vivo, cat
Details: for Normalized posture area: DAY 2 of treatment, pre-operative value = 1, control 4.6
Procedure: We have previously described the surgery for vestibular neurectomy ([35]). “Adult male cats weighing 4–5 kg were anesthetized with ketamine (20 mg/kg, i.m.; Rhône Poulenc, Mérieux, France), received an analgesic (Tolfenamic acid: tolfedine, 0.5 ml, i.m.; Vetoquinol, Lure, France) and were kept at physiological body temperature using a blanket. The vestibular nerve was sectioned on the left-side at the post-ganglion level in order to leave the auditory division intact after mastoidectomy, partial destruction of the bony labyrinth, and surgical exposure of the internal auditory canal. Animals were maintained under antibiotics for 7 days and analgesics for 3 days.”
One […] group (N = 4: cats 10–13) was submitted to a UVN and received post-operatively a vehicle (placebo group). Two groups of cats were treated with betahistine at the lower dose of 0.2 mg/kg/day (N = 3: cats 14–16) or at the higher dose of 2 mg/kg/day (N = 3: cats 17–19). Another group of cats received the combination of both betahistine at 0.2 mg/kg/day plus selegiline at the dose of 1 mg/kg/day (N = 3: cats 20–22).
Placebo treatment was pursued until full recovery of posture control in the control group, that is, 40 days on average. The same post-lesion period was investigated in the three experimental groups receiving betahistine or betahistine + selegiline.
We have described in previous papers how posture deficits and recovery were evaluated ([21]). The surface delimited by the four legs of the cat was measured while standing erect at rest, without walking. “Support surface is considered a good estimate of postural control since it reflects the cat's behavioral adaptation to compensate the static vestibulospinal deficits induced by the vestibular lesion. […] To quantify the support surface, cats were placed in a device with a graduated transparent floor that allowed them to be photographed from underneath. Five repeated measurements were done for each cat tested at each post-operative time, and an average was calculated for each experimental session. The support surface was measured as the surface delimited by the four legs by an image analysis system (Canvas, 9^TM, Deneba software, Miami, FL). Post-lesion data were compared to pre-lesion values by using individual references, each animal being its own control. Recovery of static posture function was assessed by the changes and development of the support surface over time. The recovery was considered as total when the support surface returned to the pre-operative value (unity, i.e., 1).”
Statistical analysis consisted of an ANOVA to test for changes at the different post-lesion days (2, 4, 6, 10, 15, 20, 25, 30, 35, 40 days) for the support surface in each group of cats. Repeated-measure analysis of variance was used to test (1) the effects of betahistine treatment (controls vs. treated cats), (2) the effects of the betahistine dose (0.2 vs. 2 mg/kg), and (3) the effects of additional selegiline on the lowest betahistine dose (0.2 mg/kg betahistine + 1 mg/kg selegiline).
ANOVA was followed by post-hoc analysis (Scheffe-test and multicomparison Fisher's test: Statview II software). Results were considered significant at P < 0.05. To distinguish between chronic and early effects of betahistine treatment a Two-way-ANOVA with day and treatment as discriminating factors was performed (GraphPad Prism 5.0). The Cohen's d-value (two means differences/largest standard deviation) was evaluated to test the size effect.

CNCCc1ccccn1 [Betahistine, betahistine] was tested, and the “Post-lesion day (D+) of complete recovery of posture” value (2 mg/kg betahistine group, earlier than controls) was 10, the “Cohen's d, control versus treatment (support surface)” value (shortened to “Cohen's d, control versus treatment”) (Betahistine (0.2 mg), D+2) was 0.657 and the “Cohen's d, control versus treatment” value (Betahistine (0.2 mg), D+4) was 3.289. For the same compound, the “Cohen's d, control versus treatment” value (Betahistine (0.2 mg), D+6) was 2.510, the “Cohen's d, control versus treatment” value (Betahistine (0.2 mg), D+10) was 2.708 and the “Cohen's d, control versus treatment” value (Betahistine (0.2 mg), D+15) was 4.224. For the same compound, the “Cohen's d, control versus treatment” value (Betahistine (0.2 mg), D+20) was 2.064, the “Cohen's d, control versus treatment” value (Betahistine (0.2 mg), D+25) was 2.870 and the “Cohen's d, control versus treatment” value (Betahistine (0.2 mg), D+30) was 5.146. For the same compound, the “Cohen's d, control versus treatment” value (Betahistine (0.2 mg), D+40) was -1.447, the “Cohen's d, control versus treatment” value (Betahistine (2 mg), D+2) was 2.662 and the “Cohen's d, control versus treatment” value (Betahistine (2 mg), D+4) was 3.616. For the same compound, the “Cohen's d, control versus treatment” value (Betahistine (2 mg), D+6) was 2.799, the “Cohen's d, control versus treatment” value (Betahistine (2 mg), D+10) was 5.398 and the “Cohen's d, control versus treatment” value (Betahistine (2 mg), D+15) was 7.246. The “Cohen's d, control versus treatment” value (Betahistine (2 mg), D+20) was 13.857, the “Cohen's d, control versus treatment” value (Betahistine (2 mg), D+25) was 8.478 and the “Cohen's d, control versus treatment” value (Betahistine (2 mg), D+30) was 6.512. For the same compound, the “Cohen's d, control versus treatment” value (Betahistine (2 mg), D+40) was 3.320, the Normalized posture area (BH 0.2 mg/kg) was 3.98 and the Normalized posture area (BH 2.0 mg/kg) was 2.4. For the same compound, the “Difference from controls with respect to complete time of recovery (ANOVA)” value (betahistine 0.2 mg/kg, P < 0.15) was “did not significantly differed”, the “Support surface versus untreated cats, Bonferroni post-test” value (betahistine 0.2 mg/kg, p < 0.01, first week only) was “significant differences at the particular D+4 and D+6 time delays” and the “Complete time of recovery of posture” value (betahistine 0.2 mg/kg, same as controls) was “around 6 weeks”. For the same compound, the “Difference from controls with respect to complete time of recovery (ANOVA)” value (betahistine 2 mg/kg, P < 0.026) was “differed significantly”.
